Publication PMC6344987 (BMC Complementary and Alternative Medicine, 2019)

What was measured:
[1] = system: CYP3A4; test: P450-Glo CYP3A4 (Luciferin-IPA) activity in primary isolated rat hepatocytes; type: in vitro ADME; details: n = 6; for CYP3A4 activity relative to untreated isolated hepatocytes: substance alone, ketoconazole 1, warfarin 3, pomegranate peel extract 120, ellagic acid 48, guava leaves extract 294, quercetin 15 μg/ml; for CYP3A4 activity relative to untreated isolated hepatocytes, in combination with warfarin: combined with warfarin 3 μg/ml, pomegranate peel extract 120, ellagic acid 48, guava leaves extract 294, quercetin 15 μg/ml
Description: (§1) The liver of anaesthetized rat with inhaled isoflurane were perfused with collagenase enzyme as described by. Liver cells were dispersed gently in a sterile petri dish, and prepared for hepatocyte culture as described elsewhere. Cell were plated at a final concentration of 50,000 cell/100 μl and seeded in 96 well plates (100 μl). Cells were left to recover and grow overnight prior to the day of experiment.
Doses of chemicals selected for in vitro testing on primary cultured hepatocyte mitochondrial activity were estimated after literature review and preliminary work in order to obtain the IC50 values of tested compounds (data not shown). […] Directly after the addition of treatments, 25 μl of the lumenogenic substrate (Luciferin-H, Luciferin-ME or Luciferin-IPA) was added to each well. The plates were incubated at 37 °C for appropriate time according to manufacture protocol (Promega, USA). Later, 25 μl from culture media from each well was transferred into 96-well opaque white luminometer plate and equal amount of Luciferin detection reagent was added to each well to initiate the luminescent reaction. The reaction was allowed for 20 min at room temperature away from light. Finally, luminescence was read using GloMax®-Multi Detection System (Promega, USA).

[2] = system: Sprague Dawley rats; test: In vivo pharmacodynamic study: prothrombin time (PT) and INR in rat plasma after five days of oral treatment; details: oral daily for five days, WF 0.5 mg/kg, PPE 100 mg/kg, EA 40 mg/kg, GvL 250 mg/kg, QUE 12.75 mg/kg, mean ± SD (n = 8); for INR: calculated from PT; for PT: plasma on fifth day
Description: Adult Sprague Dawley laboratory rats were supplied by the Animal Facility of the University of […], Jordan). […] Rats were fasted overnight with free access to water. All experiments involving animals were conducted according to the institutional guidelines for the use of laboratory animals, which follows the guidelines of the Federation of European Laboratory Animal Science Associations (FELASA). The used animals were euthanized with cervical dislocation at the end of each experiment. The study protocol was revised and approved by the Committee of Scientific Research of the University of Petra (Approval number: 4-2016/2017, Date: 22/06/2017). The rats were weighed and randomized into ten groups (n = 8) and acclimatized for ten days before the experiment. Oral stainless steel gavage needle (Harvard Apparatus, Kent, UK) was used for oral administration of the treatments. Groups were treated daily for five days as following; group 1 received oral 0.5% CMC solution and served as a negative control. […] Group 3 received 100 mg/kg pomegranate peel extract suspension. […] Group 7 received 250 mg/kg guava leaves extract suspension. […] Plasma was separated, transferred directly into labeled Eppendorf tubes for PT and INR analysis. Reconstituted thromboplastin was added to 100 μl of each plasma sample in pre-warmed cuvette at 37 °C. […] INR was calculated from the detected PT according to the manufacturer's instructions.

[3] = in vivo; details: rat, po, 0.5 mg/kg
Description: On the fifth day, blood samples were collected from the 18 h fasted rats at different time intervals namely; at zero time, 0.5, 1, 2, 3, 4, 6, 8, 12, 24, 48 and 72 h from all groups and drawn into EDTA micro tubes. The micro tubes were centrifuged at 7000 RPM for 10 min. Plasma was separated, transferred directly into labeled Eppendorf tubes and stored at − 20 °C until requested for HPLC analysis.
Reversed-phase high-performance liquid chromatography (HPLC) analysis was used to separate samples using Finnigan surveyor system (Thermo Electron Corporation, San Jose, California, USA) on a hypersil™ BDS C-18 Column (150 mm × 4.6 mm, 5 μm) (Thermo Electron Corporation, San Jose, California, USA) and quantified using ultraviolet detection at 310 nm (UV-VIS Plus Detector). The mobile phase was a mixture of 60% acetonitrile HPLC grade and 40% water containing 1 ml triethylamine/l and phosphoric acid (pH 3.0) with a flow rate of 1.0 ml/min (LC pump plus) using 20 μl injection volume (Autosampler Plus). Metronidazole benzoate was used as an internal standard. ChromQuest 4.2.34 chromatography data system was implemented for data acquisition and handling. […] Consequently, different concentrations of working solutions were prepared for plasma spiking by mixing 25 μl of working solutions in 975 μl of plasma (Fig. 1, Table 1). […] The supernatant was then analyzed using an in house validated HPLC method at the Faculty of Pharmacy and Medical Sciences, University of Petra, Amman, Jordan (MSc thesis, Farah Al-Mamoori, 2016, University of Petra).
The calculated pharmacokinetic parameters presented in the current study were maximum plasma concentration (Cmax), area under the curve (AUC), area under the first moment curve (AUMC), mean residence time (MRT), half-life (t0.5), clearance (CL), volume of distribution (Vz), time at which Cmax was observed (Tmax) and elimination rate constant (Kel).

[4] = system: CYP2C9; test: P450-Glo CYP2C9 (Luciferin-H) activity in primary isolated rat hepatocytes; type: in vitro ADME; details: n = 6; for CYP2C9 activity relative to untreated isolated hepatocytes, in combination with warfarin: combined with warfarin 3 μg/ml, pomegranate peel extract 120, ellagic acid 48, guava leaves extract 294, quercetin 15 μg/ml; for CYP2C9 activity relative to untreated isolated hepatocytes: substance alone, sulfamethoxazole 130, warfarin 3, pomegranate peel extract 120, ellagic acid 48, guava leaves extract 294, quercetin 15 μg/ml
Description: as §1
(§2) Directly after the addition of treatments, 25 μl of the lumenogenic substrate (Luciferin-H, Luciferin-ME or Luciferin-IPA) was added to each well. The plates were incubated at 37 °C for appropriate time according to manufacture protocol (Promega, USA). Later, 25 μl from culture media from each well was transferred into 96-well opaque white luminometer plate and equal amount of Luciferin detection reagent was added to each well to initiate the luminescent reaction. The reaction was allowed for 20 min at room temperature away from light. Finally, luminescence was read using GloMax®-Multi Detection System (Promega, USA).

[5] = system: CYP2C8; test: P450-Glo CYP2C8 (Luciferin-ME) activity in primary isolated rat hepatocytes; type: in vitro ADME; details: n = 6; for CYP2C8 activity relative to untreated isolated hepatocytes, in combination with warfarin: combined with warfarin 3 μg/ml, pomegranate peel extract 120, ellagic acid 48, guava leaves extract 294, quercetin 15 μg/ml
Description: as §1, §2

Row | AUC ([3]; Sprague-Dawley) | Cmax ([3]; Sprague-Dawley) | MRT ([3]; Sprague-Dawley) | Tmax ([3]; Sprague-Dawley) | Vd/F ([3]; Sprague-Dawley) | CL/F [3] | Structure (SMILES) | CYP3A4 activity relative to untreated isolated hepatocytes [1] | INR [2] | PT [2] | CYP2C9 activity relative to untreated isolated hepatocytes, in combination with warfarin [4] | CYP2C9 activity relative to untreated isolated hepatocytes [4] | CYP2C8 activity relative to untreated isolated hepatocytes, in combination with warfarin [5] | CYP3A4 activity relative to untreated isolated hepatocytes, in combination with warfarin [1] | CYP2C8 activity relative to untreated isolated hepatocytes ([5]; substance alone, trimethoprim 30, warfarin 3, pomegranate peel extract 120, ellagic acid 48, guava leaves extract 294, quercetin 15 μg/ml)
1 | – | – | – | – | – | – | CC(=O)N1CCN(c2ccc(OCC3COC(Cn4ccnc4)(c4ccc(Cl)cc4Cl)O3)cc2)CC1 (centres unmarked) [ketoconazole, reference compound] | significantly reduced | – | – | – | – | – | – | –
2 | 107 µg·h/mL | 3670 ± 663 ng/mL | 25 ± 5 h | 6 ± 8 h | 0.035 ± 0.015 L | 1.45 ± 0.5 mL/h | CC(=O)CC(c1ccccc1)c1c(O)c2ccccc2oc1=O (centres unmarked) [WF, Warfarin] | – | 19 ± 1 | 191 ± 12 s | – | – | – | – | –
3 | – | – | – | – | – | – | O=c1oc2c(O)c(O)cc3c(=O)oc4c(O)c(O)cc1c4c23 [EA, ellagic acid] | – | 1.43 ± 0.10 | 23 ± 1.31 s | significantly inhibited | significant inhibition | significantly inhibited | significantly inhibited | –
4 | – | – | – | – | – | – | O=c1c(O)c(-c2ccc(O)c(O)c2)oc2cc(O)cc(O)c12 [QUE, quercetin hydrate] | inhibited | 1.39 ± 0.09 | 22.5 ± 1.20 s | inhibited | inhibited | inhibited | inhibited | inhibited
